# Assay results as given in article PMC12723449, “From Pharmacophore to Warhead: NAD^+‐Targeting Triazoles as Mechanism‐Based Sirtuin Inhibitors” (Angewandte Chemie (International Ed. in English), 2025).
# Read-outs that look alike come from different tables or passages of the source.
# Molecular target: T1, NanoLuc–SIRT2 fusion protein in HEK293T cells (Homo sapiens, UniProt Q8IXJ6)
# T1 construct: transfected HEK293T cells expressing the NanoLuc-tagged SIRT250-356 fusion protein were used instead of transient; expressed in transfected cells; host or cells: HEK293T (stably transfected)
# T1 sequence (Q8IXJ6 50-356 limits assumed): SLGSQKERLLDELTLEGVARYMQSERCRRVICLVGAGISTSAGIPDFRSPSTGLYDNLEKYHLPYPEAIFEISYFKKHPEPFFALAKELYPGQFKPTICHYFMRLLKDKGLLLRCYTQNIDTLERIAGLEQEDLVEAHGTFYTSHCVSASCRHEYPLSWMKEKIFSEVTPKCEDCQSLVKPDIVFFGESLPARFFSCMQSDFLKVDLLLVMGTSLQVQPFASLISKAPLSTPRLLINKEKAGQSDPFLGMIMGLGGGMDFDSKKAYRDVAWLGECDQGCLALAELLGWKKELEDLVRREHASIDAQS
# Test: NanoBRET cellular target engagement assay
# Format: cell-based
# Details: for Ki: read-out: NanoBRET K i (Cheng–Prusoff)
# Experimental: The NanoBRET target engagement assay was performed as previously described[2] with the modification that stably transfected HEK293T cells expressing the NanoLuc-tagged SIRT250-356 fusion protein were used instead of transient transfection. Briefly, HEK293T-NLuc- SIRT250-356 cells were cultured under standard conditions (37 °C, 5% CO2) in DMEM supplemented with 10% fetal bovine serum, 2 mM glutamine, and 300 µg/mL hygromycin as a selection marker. For the assay, cells were trypsinized, resuspended in Opti-MEM® reduced serum medium, and adjusted to a concentration of 2 × 10^5 cells per mL. […]
# µM was used. Serially diluted inhibitor and tracer were added to the cell suspension, and 100 μL were seeded into 96-well white, sterile, nonbinding surface plates. To evaluate the cellular permeability of LTDi-1 (6), the non-ionic detergent digitonin (50 µg/ml) was added. Plates were incubated at 37 °C with 5% CO2 for 2 h. For BRET measurements, NanoBRET NanoGlo Substrate (Promega cat. #N1571) was added to the wells according to the […]
# All measurements were performed using the 2102 EnVisionTM Multilabel Reader (PerkinElmer), equipped with a 460 nm filter (donor) and a 615 nm filter (acceptor). The BRET ratio was calculated as the ratio of acceptor to donor signal, and data were normalized to vehicle-treated controls. Apparent intracellular binding affinities (EC50 values) were determined by fitting dose-response curves using nonlinear regression analysis in GraphPad Prism. […]
# [1] = 2 µM tracer, co-treatment with digitonin
smiles,measurement,setting,value
CCCCCCCCCCCCc1cn(CCCC[C@H](NC(=O)[C@H](CCCCN)NC(=O)[C@@H]2CCCN2C(=O)[C@H](CC(C)C)NC(=O)[C@H](C)NC(=O)[C@H](CCC(=O)O)NC(C)=O)C(=O)N[C@H](C(=O)NCC(=O)NCC(N)=O)[C@@H](C)O)nn1 [Compound 6],EC50,[1],160 ± 20 nM
same,Ki,[1],18 ± 2 nM
same,EC50,"2 µM tracer, without digitonin",340 ± 90 nM
same,Ki,"2 µM tracer, without digitonin",38 ± 10 nM
"COCCn1cc(COc2cccc(Cc3cnc(NC(=O)CSc4nc(C)cc(C)n4)s3)c2)nn1 [Compound 1, reference compound]",EC50,without digitonin,2700 ± 100 nM
